Key:
[1] = target: T1, PheA1A2 (PheA2A1, phenol monooxygenase) (Rhodococcus rhodochrous, UniProt A0ABY1MEQ0); assay: HPLC of substrate depletion, product by LC-MS; type: cell-based; details: whole E. coli BL21(DE3) cells expressing PheA1A2, OD600 15, 100 mM PBS, 0.5 mM 4-chlorophenol; ortho hydroxylation
T1 construct: gene SAMN02745947_03917; both components co-expressed from pET28a in E. coli BL21(DE3), whole cells; with Phenol 2-monooxygenase, flavin reductase component

[2] = target: T1, PheA1A2 (PheA2A1, phenol monooxygenase); assay: HPLC of substrate depletion; type: cell-based; details: whole E. coli BL21(DE3) cells expressing PheA1A2; ortho hydroxylation

T1 sequence (A0ABY1MEQ0 1-537): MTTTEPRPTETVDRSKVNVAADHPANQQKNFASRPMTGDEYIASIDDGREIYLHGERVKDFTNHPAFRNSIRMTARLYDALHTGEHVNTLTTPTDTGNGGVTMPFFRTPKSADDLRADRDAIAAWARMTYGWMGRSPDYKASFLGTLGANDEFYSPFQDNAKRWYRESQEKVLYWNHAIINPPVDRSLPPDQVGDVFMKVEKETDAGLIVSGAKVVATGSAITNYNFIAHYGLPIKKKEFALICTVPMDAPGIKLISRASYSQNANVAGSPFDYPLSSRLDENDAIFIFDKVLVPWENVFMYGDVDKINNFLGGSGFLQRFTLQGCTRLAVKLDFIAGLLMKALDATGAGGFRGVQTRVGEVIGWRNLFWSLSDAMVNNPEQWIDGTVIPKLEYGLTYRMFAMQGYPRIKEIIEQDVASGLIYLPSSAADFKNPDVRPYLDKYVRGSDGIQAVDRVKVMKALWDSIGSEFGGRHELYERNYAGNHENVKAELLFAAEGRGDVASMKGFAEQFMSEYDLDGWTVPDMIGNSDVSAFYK

Q: How did the “HPLC of substrate depletion, product by LC-MS” value [1] turn out when `Oc1ccc(Cl)cc1` [4-chlorophenol] was run?
A: Its value is “The ortho hydroxylation enzyme activity to phenol, 4-chlorophenol”.

Q: With `Oc1ccccc1` [phenol] as the compound, how does the “HPLC of substrate depletion” value [2] read?
A: Its value is “The ortho hydroxylation enzyme activity to phenol, 4-chlorophenol”.

— PMC10601206, “Adaptive laboratory evolution of Rhodococcus rhodochrous DSM6263 for chlorophenol degradation under hypersaline condition” (Microbial Cell Factories, 2023)
